Laboratory results reported in patent publication US9550792B2, “Polycyclic substituted pyrazole kinase activity inhibitors and use thereof” (priority 2013, dated 2017).
pIC50: −log10 of the molar value. Read-outs that look alike come from different tables or passages of the source. Values belong to the compound of their own block, whether it stands above or below them.

Tests used:
FLT4/VEGFR3 = FLT4/VEGFR3 (Homo sapiens, UniProt P35916); experiment: Kinase IC50, 33P labeled isotope method; assay type: biochemical
FLT4/VEGFR3, sequence (P35916 845-1173 limits assumed): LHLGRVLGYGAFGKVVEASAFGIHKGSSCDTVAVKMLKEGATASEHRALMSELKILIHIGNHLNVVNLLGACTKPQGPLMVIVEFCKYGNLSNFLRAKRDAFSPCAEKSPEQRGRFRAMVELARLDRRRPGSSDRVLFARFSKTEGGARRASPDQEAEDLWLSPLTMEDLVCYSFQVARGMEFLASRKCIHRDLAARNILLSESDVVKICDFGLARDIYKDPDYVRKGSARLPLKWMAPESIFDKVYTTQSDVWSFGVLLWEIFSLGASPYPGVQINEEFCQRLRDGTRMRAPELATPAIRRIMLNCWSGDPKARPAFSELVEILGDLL

[1] = tested on: colon cancer cell line HCT116; experiment: Anti-tumor activity in vitro, MTT method; assay type: cell-based; conditions: Homo sapiens, HCT-116, 48 h, read-out: HCT-116 (IC50/μM)
lung cancer cell H1299 = experiment: Anti-tumor activity in vitro, MTT method; assay type: cell-based; conditions: Homo sapiens, NCI-H1299, 48 h, read-out: H1299 (IC50/μM)

- pIC50 (FLT4/VEGFR3; 20 μM ATP, read-out: IC50* FLT4/VEGFR3): 8.40
SMILES: Cc1cc2c(Nc3c[nH]nc3C(=O)Nc3ccc(CN4CCN(C)CC4)cc3)ncnc2s1 [Compound I-3, 4-(4-(6-methylthieno[2,3-d]pyrimidinyl)amino)-N-(4-((4-methyl-1-piperazinyl)methyl)phenyl)-1H-3-pyrazolecarboxamide]

SMILES: CN1CCN(Cc2ccc(NC(=O)c3n[nH]cc3Nc3ncnc4[nH]ccc34)cc2)CC1 [Compound I-11, 4-(4-(7H-pyrrolo[2,3-d]pyrimidinyl)amino)-N-(4-((4-methyl-1-piperazinyl)methyl)phenyl)-1H-3-pyrazolecarboxamide]
- pIC50 (FLT4/VEGFR3): 8.40

SMILES: CN1CCN(Cc2ccc(NC(=O)c3n[nH]cc3Nc3ncnc4occc34)cc2)CC1 [Compound I-21, 4-(4-furo[2,3-d]pyrimidinylamino)-N-(4-((4-methyl-1-piperazinyl)methyl)phenyl)-1H-3-pyrazolecarboxamide]
- IC50 [1]: 9.58 µM
- IC50 (lung cancer cell H1299): 7.66 µM
